Experimental data: ChEMBL document CHEMBL2040775, “Evaluation of novel antioxidant triterpenoid saponins from the halophyte Salicornia herbacea” (Bioorg Med Chem Lett, 2012)
Calls of active or inactive are those of the source. No cut-off for these calls is given here.

Legend:
Format in all cases: functional
[1] = tested on: Radical scavenging activity; experiment: Antioxidant activity assessed as DPPH radical scavenging activity after 30 mins by spectrophotometry
[2] = tested on: Radical scavenging activity; experiment: Antioxidant activity assessed as DPPH radical scavenging activity at 10 ug/ml after 30 mins by spectrophotometry
[3] = tested on: Radical scavenging activity; experiment: Antioxidant activity assessed as DPPH radical scavenging activity a 50 ug/ml after 30 mins by spectrophotometry
[4] = tested on: Radical scavenging activity; experiment: Antioxidant activity assessed as DPPH radical scavenging activity at 100 ug/ml after 30 mins by spectrophotometry
[5] = Antioxidant activity assessed as authentic peroxynitrite radical scavenging activity after 5 mins by spectrophotometry
[6] = Antioxidant activity assessed as morpholinosydnonimine-derived peroxynitrite free radical scavenging activity after 5 mins by spectrophotometry
[7] = Antioxidant activity assessed as authentic peroxynitrite radical scavenging activity at 50 ug/ml after 5 mins by spectrophotometry
[8] = Antioxidant activity assessed as morpholinosydnonimine-derived peroxynitrite free radical scavenging activity at 50 ug/ml after 5 mins by spectrophotometry

Row | Structure (SMILES) | IC50 [1] [µM] | IC50 [5] [µM] | IC50 [6] [µM] | Activity [2] [%] | Activity [3] [%] | Activity [4] [%] | Activity [7] | Activity [8]
1 | CC1(C)CC[C@]2(C(=O)O[C@@H]3O[C@H](CO)[C@@H](O)[C@H](O)[C@H]3O)CC[C@]3(C)C(=CC[C@@H]4[C@@]5(C)CC[C@H](O[C@@H]6O[C@H](C(=O)O)[C@@H](O)[C@H](O)[C@H]6O)[C@@](C)(C=O)[C@@H]5CC[C@]43C)[C@@H]2C1 | > 500 | 7.1 | 1.4 | – | – | – | Active | Active
2 | CC1(C)CC[C@]2(C(=O)O)CC[C@]3(C)C(=CC[C@@H]4[C@@]5(C)CC[C@H](O[C@@H]6O[C@H](C(=O)O)[C@@H](O)[C@H](O)[C@H]6O)[C@@](C)(C=O)[C@@H]5CC[C@]43C)[C@@H]2C1 | > 500 | 21.9 | 20.4 | – | – | – | Active | Active
3 | C=C1CC[C@]2(C(=O)O[C@@H]3O[C@H](CO)[C@@H](O)[C@H](O)[C@H]3O)CC[C@]3(C)C(=CC[C@@H]4[C@@]5(C)CC[C@H](O[C@@H]6O[C@H](C(=O)O)[C@@H](O)[C@H](O)[C@H]6O)[C@@](C)(CO)[C@@H]5CC[C@]43C)[C@@H]2C1 | 390 | < 1 | < 1 | – | – | – | Active | Active
4 | CC(C)(S)[C@@H](N)C(=O)O [PENICILLAMINE] | – | < 1 | < 1 | – | – | – | – | –

More lines, main results first:

Row | IC50 [1] [µM] | IC50 [5] [µM] | IC50 [6] [µM] | Structure (SMILES) | Activity [2] [%] | Activity [3] [%] | Activity [4] [%] | Activity [7] | Activity [8]
5 | < 200 | – | – | Cc1cc(C(C)(C)C)c(O)c(C(C)(C)C)c1 [BUTYLATED HYDROXYTOLUENE] | 39.7 | 54.9 | 68 | – | –
6 | < 20 | 1.5 | < 1 | O=C1O[C@H]([C@@H](O)CO)C(O)=C1O [ASCORBIC ACID] | 94.9 | 95.1 | 95 | – | –
7 | > 500 | 4.9 | 6.6 | C=C1CC[C@]2(C(=O)O[C@@H]3O[C@H](CO)[C@@H](O)[C@H](O)[C@H]3O)CC[C@]3(C)C(=CC[C@@H]4[C@@]5(C)CC[C@H](O[C@@H]6O[C@H](C(=O)O)[C@@H](O)[C@H](O)[C@H]6O)[C@@](C)(C=O)[C@@H]5CC[C@]43C)[C@@H]2C1 | – | – | – | Active | Active
